Where two headings read alike, the source gives them in different places.
Columns and labels:
[1] = test system: HepG2 (Hepatocellular Carcinoma); assay: Cell viability analysis, hepatic cancer HepG2; assay type: cell-based, human; settings: Homo sapiens, HepG2, 72 h
[2] = test system: PC3 (p53−) (Prostate Adenocarcinoma); assay: Cell viability analysis, prostate cancer PC3; assay type: cell-based, human; settings: Homo sapiens, 72 h
[3] = test system: SAS (Tongue squamous cell carcinoma); assay: Cell viability analysis, tongue cancer SAS; assay type: cell-based, human; settings: Homo sapiens, 72 h; SAS; repeated experiment; read-out: The results of antibiotic drug inhibiting cancer cell lines (cell viability analysis), SAS
[4] = test system: TSGH-8301 (Urinary Bladder Carcinoma); assay: Cell viability analysis, bladder cancer TSGH-8301; assay type: cell-based, human; settings: Homo sapiens, 72 h
[5] = test system: AGS (Gastric Adenocarcinoma); assay: Cell viability analysis, gastric cancer AGS; assay type: cell-based, human; settings: Homo sapiens, 72 h
[6] = test system: C-33A (Cervical carcinoma); assay: Cell viability analysis, cervical cancer C-33A; assay type: cell-based, human; settings: Homo sapiens, 72 h; C-33A; repeated experiment; read-out: The results of antibiotic drug inhibiting cancer cell lines (cell viability analysis), C-33A
cancer cell lines = assay: Cell viability analysis (WST-1) on cancer cell lines; assay type: cell-based, human; settings: drug 10 μM, 72 hours, WST-1; Table 3
NIH: OVCAR-3 = assay: Cell viability analysis, ovarian cancer NIH: OVCAR-3; assay type: cell-based, human; settings: Homo sapiens, 72 h; NIH-OVCAR-3; repeated experiment; read-out: The results of antibiotic drug inhibiting cancer cell lines (cell viability analysis), NIH-OVCAR-3
[7] = test system: MDA-MB-231 (Mammary Gland, Adenocarcinoma); assay: Cell viability analysis, breast cancer MDA-MB-231; assay type: cell-based, human; settings: Homo sapiens, MDA-MB-231, 72 h; MDA-MB231; repeated experiment; read-out: The results of antibiotic drug inhibiting cancer cell lines (cell viability analysis), MDA-MB231
AsPC-1 = assay: Cell viability analysis, pancreatic cancer AsPC-1; assay type: cell-based, human; settings: Homo sapiens, ASPC1, 72 h; AsPC-1; repeated experiment; read-out: The results of antibiotic drug inhibiting cancer cell lines (cell viability analysis), AsPC-1
[8] = test system: HL-60 (Acute Promyelocytic Leukemia); assay: Cell viability analysis, leukemia HL-60; assay type: cell-based, human; settings: Homo sapiens, HL-60, 72 h, drug 10 μM, 72 hours, WST-1, OD450 nm; read-out: cell viability (survival rate), HL-60
BxPC-3 = assay: Cell viability analysis, pancreatic cancer BxPC-3; assay type: cell-based, human; settings: Homo sapiens, 72 h; BxPC-3; repeated experiment; read-out: The results of antibiotic drug inhibiting cancer cell lines (cell viability analysis), BxPC-3
[9] = test system: 786-O (Renal adenocarcinoma); assay: Cell viability analysis, renal cancer 786-O; assay type: cell-based, human; settings: Homo sapiens, 786-0, 72 h; 786-O; repeated experiment; read-out: The results of antibiotic drug inhibiting cancer cell lines (cell viability analysis), 786-O
[10] = test system: Hep3B (hepatocellular carcinoma); assay: Cell viability analysis, hepatic cancer Hep3B; assay type: cell-based, human; settings: Homo sapiens, 72 h; Hep3B; repeated experiment; read-out: The results of antibiotic drug inhibiting cancer cell lines (cell viability analysis), Hep3B
[11] = test system: HeLa (Cervix Adenocarcinoma); assay: Cell viability analysis, cervical cancer HeLa; assay type: cell-based, human; settings: Homo sapiens, HeLa, 72 h, HeLa
TOV-21G = assay: Cell viability analysis, ovarian cancer TOV-21G; assay type: cell-based, human; settings: Homo sapiens, TOV21G, 72 h; TOV-21G; repeated experiment; read-out: The results of antibiotic drug inhibiting cancer cell lines (cell viability analysis), TOV-21G
[12] = test system: HI650 (Lung Adenocarcinoma); assay: Cell viability analysis, lung cancer HI650; assay type: cell-based, human; settings: Homo sapiens, NCI-H1650, 72 h
[13] = test system: LoVo (Colorectal Adenocarcinoma); assay: Cell viability analysis, colon cancer LoVo; assay type: cell-based, human; settings: Homo sapiens, LoVo, 72 h
U-2OS = assay: Cell viability analysis, osteosarcoma U-2OS; assay type: cell-based, human; settings: Homo sapiens, 72 h; U2OS; repeated experiment; read-out: The results of antibiotic drug inhibiting cancer cell lines (cell viability analysis), U2OS
[14] = test system: A549 (Lung Adenocarcinoma); assay: Cell viability analysis, lung cancer A549; assay type: cell-based, human; settings: Homo sapiens, A549, 72 h
[15] = test system: MKN-45 (Gastric Adenocarcinoma); assay: Cell viability analysis, gastric cancer MKN-45; assay type: cell-based, human; settings: Homo sapiens, MKN-45, 72 h
[16] = test system: MCF7 (Mammary Gland, Adenocarcinoma); assay: Cell viability analysis, breast cancer MCF7; assay type: cell-based, human; settings: Homo sapiens, MCF7, 72 h
[17] = test system: HCT116 (p53+) (Colorectal Carcinoma)
[18] = test system: A375 (Amelanotic Melanoma); assay: Cell viability analysis, skin cancer A375; assay type: cell-based, human; settings: Homo sapiens, A-375, 72 h
[19] = HepG2, repeated experiment, read-out: The results of antibiotic drug inhibiting cancer cell lines (cell viability analysis), HepG2
[20] = drug 10 μM, 72 hours, WST-1, OD450 nm, read-out: cell viability (survival rate), HepG2
[21] = PC-3, repeated experiment, read-out: The results of antibiotic drug inhibiting cancer cell lines (cell viability analysis), PC-3
[22] = drug 10 μM, 72 hours, WST-1, OD450 nm, read-out: cell viability (survival rate), PC3
[23] = TSGH-8301, repeated experiment, read-out: The results of antibiotic drug inhibiting cancer cell lines (cell viability analysis), TSGH-8301
[24] = drug 10 μM, 72 hours, WST-1, OD450 nm, read-out: cell viability (survival rate), TSGH
[25] = AGS, repeated experiment, read-out: The results of antibiotic drug inhibiting cancer cell lines (cell viability analysis), AGS
[26] = drug 10 μM, 72 hours, WST-1, OD450 nm, read-out: cell viability (survival rate), AGS
[27] = repeated experiment, read-out: The results of antibiotic drug inhibiting cancer cell lines (cell viability analysis), HeLa
[28] = drug 10 μM, 72 hours, WST-1, OD450 nm, read-out: cell viability (survival rate), HeLa
[29] = H1650, repeated experiment, read-out: The results of antibiotic drug inhibiting cancer cell lines (cell viability analysis), H1650
[30] = drug 10 μM, 72 hours, WST-1, OD450 nm, read-out: cell viability (survival rate), H1650
[31] = read-out: The results of antibiotic drug inhibiting cancer cell lines (cell viability analysis), LoVo, repeated experiment
[32] = read-out: cell viability (survival rate), LoVo, drug 10 μM, 72 hours, WST-1, OD450 nm
[33] = A549, repeated experiment, read-out: The results of antibiotic drug inhibiting cancer cell lines (cell viability analysis), A549
[34] = drug 10 μM, 72 hours, WST-1, OD450 nm, read-out: cell viability (survival rate), A549
[35] = MKN-45, repeated experiment, read-out: The results of antibiotic drug inhibiting cancer cell lines (cell viability analysis), MKN-45
[36] = drug 10 μM, 72 hours, WST-1, OD450 nm, read-out: cell viability (survival rate), MKN-45
[37] = MCF-7, repeated experiment, read-out: The results of antibiotic drug inhibiting cancer cell lines (cell viability analysis), MCF-7
[38] = drug 10 μM, 72 hours, WST-1, OD450 nm, read-out: cell viability (survival rate), MCF7
[39] = A375, repeated experiment, read-out: The results of antibiotic drug inhibiting cancer cell lines (cell viability analysis), A375
[40] = drug 10 μM, 72 hours, WST-1, OD450 nm, read-out: cell viability (survival rate), A375

| SMILES | viability at 10 µM [1, 19] [%] | viability at 10 µM [1, 20] [%] | viability at 10 µM [2, 21] [%] | viability at 10 µM [2, 22] [%] | viability at 10 µM [3] [%] | viability at 10 µM [4, 23] [%] | viability at 10 µM [4, 24] [%] | viability at 10 µM [5, 25] [%] | viability at 10 µM [5, 26] [%] | viability at 10 µM [6] [%] | inhibition effect on different cancer cell lines (cancer cell lines) | viability at 10 µM (NIH: OVCAR-3) [%] | viability at 10 µM [7] [%] | viability at 10 µM (AsPC-1) [%] | viability at 10 µM [8] [%] | viability at 10 µM (BxPC-3) [%] | viability at 10 µM [9] [%] | viability at 10 µM [10] [%] | viability at 10 µM [11, 27] [%] | viability at 10 µM [11, 28] [%] | further results |
| --- | --- | --- | --- | --- | --- | --- | --- | --- | --- | --- | --- | --- | --- | --- | --- | --- | --- | --- | --- | --- | --- |
| CC(C)(C)CC(C)(C)c1ccc(O)c(Cc2ccc(Cl)cc2Cl)c1 [Clofoctol] | 114 | 77.9 | 110 | 63.4 | 73.2 | 109 | 72.3 | 83.9 | 86.7 | 117 | significant inhibition effect | 97.8 | 102 | 78.7 | 83 | 65.8 | 105 | 135 | 98 | 58 | viability at 10 µM (TOV-21G): 73.1%; viability at 10 µM [12, 29]: 69.6%; viability at 10 µM [12, 30]: 77%; viability at 10 µM [13, 31]: 67.1%; viability at 10 µM [13, 32]: 74.7%; viability at 10 µM (U-2OS): 74.9%; viability at 10 µM [14, 33]: 90.6%; viability at 10 µM [14, 34]: 55.6%; viability at 10 µM [15, 35]: 117%; viability at 10 µM [15, 36]: 73.6%; viability at 10 µM [16, 37]: 83%; viability at 10 µM [16, 38]: 48.1%; viability [17]: 76.6%; viability at 10 µM [18, 39]: 109%; viability at 10 µM [18, 40]: 34.5% |
| Cc1ccc2c(Cl)cc(Cl)c(O)c2n1 [Chlorquinaldol] | 82 | 82.3 | 66.4 | 68.4 | 20.6 | 87 | 70.5 | 53.9 | 35.7 | 47.5 | significant inhibition effect | 78.1 | 65 | 62.8 | 64.8 | 53.9 | 41.8 | 105 | 64.9 | 42.6 | viability at 10 µM (TOV-21G): 40.1%; viability at 10 µM [12, 29]: 75.2%; viability at 10 µM [12, 30]: 59.6%; viability at 10 µM [13, 31]: 45.8%; viability at 10 µM [13, 32]: 62.8%; viability at 10 µM (U-2OS): 32.4%; viability at 10 µM [14, 33]: 37.8%; viability at 10 µM [14, 34]: 54.5%; viability at 10 µM [15, 35]: 92.4%; viability at 10 µM [15, 36]: 75.4%; viability at 10 µM [16, 37]: 30.2%; viability at 10 µM [16, 38]: 47.8%; viability [17]: 38.5%; viability at 10 µM [18, 39]: 35.5%; viability at 10 µM [18, 40]: 43% |

Source: US10105357B2, “Indication of antibiotic drugs for preparation of cancer inhibition pharmaceutical composition” (LAUNX BIOMEDICAL CO., LTD., priority 2014, dated 2018)
